Test results: article PMC10313808, “Lipoxygenase inhibitory synthetic derivatives of methyl gallate regulate gene expressions of COX-2 and cytokines to reduce animal model arthritis” (Scientific Reports, 2023)
Marks after values point to notes of the source that are not given here.

Key:
Assay type in all cases: in vivo, Sprague–Dawley (SD) rats
FCA-induced arthritis [1] = experiment: FCA-induced arthritis: haematological parameters; settings: FCA rats
Protocol: (§1) Chronic inflammation induced by Freund's Complete Adjuvant contains a suspension of heat-killed Mycobacterium tuberculosis in the vehicle (Chondrex, Labex Corporation). 100 μL of FCA (10 mg/mL) was injected intradermally to the left-hand paw of SD rats[42]. […] Induction of inflammation became chronic by 9–12 days and then rats were divided into 7 groups having 6 rats in each group. Everything possible was done to minimize the suffering of experimental animals. Minimum number of rats only were drafted to generate reliable data. 42 rats were randomly allocated into seven groups (6 × 7).
(§2) Group I (n = 6) served as normal rats that received an equal volume of vehicle control. Group II (n = 6) was arthritic model control treated with vehicle only. Group III (n = 6) was arthritic control which received the diclofenac (10 mg.kg^–1). Groups IV (n = 6), V (n = 6), VI (n = 6) and VII (n = 6) were treated with a low and high dose of methyl gallate (20 mg.kg^–1, 40 mg.kg^–1) and MGSD 1 (1 mg.kg^–1, 10 mg.kg^–1). The drugs were orally administered through oral gavage daily in PBS vehicle for 28 days.
Blood was drawn from jugular vein[43] and collected in heparinized tubes and used for further analysis. By using Horiba 5-part hematology analyzer the blood parameters like RBC, WBC, neutrophil and hemoglobin were analyzed. Serum parameters were analyzed using Stat Fax autoanalyzer. Serum glutamic pyruvic transaminase (SGPT), serum glutamic oxaloacetic transaminase (SGOT) and alkaline phosphatase (ALP) were determined using standard diagnostic kits (Proton, Accurex).

COX-2 = experiment: RT-PCR gene expression in hind paw tissue, COX-2; settings: normalized to GAPDH, vs arthritic control
Protocol: This study aimed to gain insight into the mechanism by which methyl gallate and its derivative influence the chronic inflammatory condition in the rat model. In the present study, the inflammatory pathway genes were identified, and their relative expression was quantified (COX-2 and TNF α). RNA was isolated from the hind paw tissue of rats and its concentration was analyzed through Qubit fluorometer. RNA was isolated by Trizol method and agarose gel electrophoresis performed. After the isolation protocol, complementary DNA was synthesized and followed the quantitative PCR with standard conditions. Primers of the targets were designed in Primer3Plus and primer validation was carried out. PCR annealing temperatures were standardized to amplify the specific genes. All the primer pairs were highly specific and resolved into single bands corresponding to amplification products of expected size on 2% agarose gel electrophoresis. Primer specificity was further confirmed by a single distinct peak on the melt curve. The specificity of primer pairs ensures the sequence quality of respective gene templates.
The relative expression of inflammatory genes was identified through quantitative RT-PCR. […] The concentration of RNA isolated was measured in the Qubit fluorometer with the RNA HS assay kit. cDNA was synthesized by reverse transcription using total RNA (2 μg) as a template. […]

FCA-induced arthritis [2] = experiment: FCA-induced arthritis: organ index (liver, spleen); settings: FCA rats, end of experiment
Protocol: as §1, §2
At the end of the experiments, animals were euthanized using ketamine injection. The liver and spleen were removed at the end of the experiment and weighed. The index of the organs was expressed as the percentage (%) wet weight of organ versus body weight. The organ indexes were calculated by using the following formula Organindex=Weightoforgang/Bodyweightg×100.

## O=C(O)COc1cc(C(=O)O)cc(OCC(=O)O)c1OCC(=O)O [MGSD 1, 2,2′,2″-((5-carboxybenzene-1,2,3-triyl)tris(oxy)) tri acetic acid]
FCA-induced arthritis [1]; 1 mg.kg^−1 oral
  Hb: 14.8 ± 0.42 g/dL
  Lymphocyte: 75.8 ± 0.21%
  Neutro phil: 11.6 ± 0.76%
  RBC: 6.93 ± 0.18^# 10^6/mm^3
  WBC: 9.3 ± 0.48^# 10^3/mm^3
FCA-induced arthritis [1]; 10 mg.kg^−1 oral
  Hb: 14.2 ± 0.26 g/dL
  Lymphocyte: 75.9 ± 3.44%
  Neutro phil: 13.4 ± 0.23%
  RBC: 7.075 ± 0.37^# 10^6/mm^3
  WBC: 8.45 ± 0.98* 10^3/mm^3
COX-2
  COX-2 gene expression: significant down regulation of COX-2
FCA-induced arthritis [2]; 1 mg.kg^−1 oral
  Organ index (%) Liver: 3.21 ± 0.12%
  Organ index (%) Spleen: 0.24 ± 0.00%
FCA-induced arthritis [2]; 10 mg.kg^−1 oral
  Organ index (%) Liver: 3.18 ± 0.48%
  Organ index (%) Spleen: 0.22 ± 0.00%

## COC(=O)c1cc(O)c(O)c(O)c1 [Methyl gallate]
FCA-induced arthritis [1]; 20 mg.kg^−1 oral
  Hb: 14.2 ± 0.65 g/dL
  Lymphocyte: 79 ± 0.79%
  Neutro phil: 11.7 ± 0.25%
  RBC: 7.47 ± 0.32^# 10^6/mm^3
  WBC: 8.3 ± 0.6 10^3/mm^3
FCA-induced arthritis [1]; 40 mg.kg^−1 oral
  Hb: 14.4 ± 0.74 g/dL
  Lymphocyte: 78.6 ± 1.85%
  Neutro phil: 12.8 ± 0.4%
  RBC: 7.87 ± 0.34^# 10^6/mm^3
  WBC: 11.25 ± 0.62^# 10^3/mm^3
COX-2
  COX-2 gene expression: significant down regulation of COX-2
FCA-induced arthritis [2]; 20 mg.kg^−1 oral
  Organ index (%) Liver: 3.59 ± 0.03 %
  Organ index (%) Spleen: 0.27 ± 0.01%
FCA-induced arthritis [2]; 40 mg.kg^−1 oral
  Organ index (%) Liver: 3.63 ± 0.11 %
  Organ index (%) Spleen: 0.28 ± 0.02%
